Values quoted from earlier work as cited in patent US10906909B2, “Treatment of cognitive and mood symptoms in neurodegenerative and neuropsychiatric disorders with ALPHA5-containing GABAA receptor agonists” (UWM Research Foundation, Inc., priority 2016, dated 2021).

Conditions: Wistar rats, Stamenic et al. 2016, cited from earlier work

## C#Cc1ccc2c(c1)C(c1ccccc1F)=N[C@H](C)c1c(C(=O)NC)ncn1-2 [MP-III-022]
i.p. single dose
  terminal elimination half-life t1/2, brain: 70 min
  terminal elimination half-life t1/2, plasma: 35 min
Single i.p. dose
  systemic and brain exposure: excellent systemic and brain exposure
